We go through four compounds from PMC10066365, “Nemacol is a small molecule inhibitor of C. elegans vesicular acetylcholine transporter with anthelmintic potential” (Nature Communications, 2023).

One assay deals with T1, rat VAChT (Rattus norvegicus, UniProt Q62666).
T1 construct: expressed in transfected cells; host or cells: rat PC12 (PC12 A123.7) cells, stably transfected; shared by Dr. Ali Roghani (Texas Tech University)
T1 sequence (Q62666 1-530): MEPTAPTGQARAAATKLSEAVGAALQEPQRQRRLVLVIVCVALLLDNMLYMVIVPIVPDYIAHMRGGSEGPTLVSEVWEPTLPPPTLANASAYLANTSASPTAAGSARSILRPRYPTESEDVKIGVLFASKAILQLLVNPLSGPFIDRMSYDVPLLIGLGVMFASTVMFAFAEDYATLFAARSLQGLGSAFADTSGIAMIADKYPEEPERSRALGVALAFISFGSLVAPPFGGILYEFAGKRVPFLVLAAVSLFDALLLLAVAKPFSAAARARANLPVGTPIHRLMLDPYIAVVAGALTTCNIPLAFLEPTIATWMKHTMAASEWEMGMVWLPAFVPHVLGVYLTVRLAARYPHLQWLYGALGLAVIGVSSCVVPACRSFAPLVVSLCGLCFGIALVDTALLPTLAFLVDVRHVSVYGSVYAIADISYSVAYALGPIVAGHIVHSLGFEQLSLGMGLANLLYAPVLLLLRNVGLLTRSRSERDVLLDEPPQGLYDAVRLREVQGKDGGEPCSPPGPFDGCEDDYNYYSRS
The assay is described as follows: [3H]Vesamicol competitive radioligand binding, PC12 cells expressing ratVAChT. To be noted: ratVAChT Ki, [3H]Vesamicol displacement, mean.

Assay [1] concerns C. elegans unc-17 mutants. The note with it: 60 min, average of 3 biological repeats.
Description: Significance was calculated using Fisher’s method (one-sided comparisons; see 'Methods'). […] Worms were incubated on the plates for 60 min.
Locomotor phenotype analyses were done in 24-well plates with 1 mL of MYOB substrate (27.5 g Trizma HCl, 12 g Trizma Base, 230 g bacto tryptone, 10 g NaCl, 0.4 g cholesterol (95%)) seeded with 25 µL of OP50 Escherichia coli on each well. Each compound was added to the MYOB substrate before pouring to achieve the desired final concentrations of 30 µM or 60 µM after diffusion through the media. Synchronized young adult worms are transferred into each well using a platinum wire pick. A Leica MZ75 stereomicroscope was used to visualize the movement of worms on the solid substrate. The specific dominant locomotor phenotype (i.e. ‘Punc’, ‘paralyzed’, ‘coiler’ or ‘wild-type locomotion’) was scored after the touch on the head with a platinum wire over a ~3–5 s of observation. […] Coiled animals were not scored as paralyzed despite sometimes not responding to light touch.
Another assay relates to Pristionchus pacificus. The assay is described as follows: Pristionchus pacificus motor disruption dose-response on solid media, 1 h. To be noted: for mean % any phene (coiled, jerky-Unc or paralyzed): Pristionchus pacificus young adults, mean of three biological replicates; for EC50: Pristionchus pacificus, 1 h, read-out: P. pacificus motor disruption EC50.
The subject of assay [2] is Dirofilaria immitis microfilariae. The assay is described as follows: Dirofilaria immitis microfilariae immobility assay (DiroImager, 72 h). To be noted: for % effect (motility), DIROIM MF: Dirofilaria immitis microfilariae; for EC50: Dirofilaria immitis, 72 h, read-out: Dirofilaria immitis filariae EC50. A digest of the protocol:
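Motility read after 72 h drug exposure with an image-based high-throughput plate imager, 1% DMSO medium serving as negative control. Missouri-isolate microfilariae, roughly 250 per well, freshly purified and cultured in supplemented RPMI 1640.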

[3] abbreviates: unc-17 (e245), 15 µM, adult worms.
[4] abbreviates: unc-17 (e245), 30 µM, adult worms.
Where [5] appears, read: unc-17 (e245), 60 µM, adult worms.
The mark [6] stands for this setting: unc-17 (e245), 120 µM, adult worms.
[7] abbreviates: unc-17 (e245), 240 µM, adult worms.
Where [8] appears, read: conc 3.75, observed at one hour.

Molecules are shown by their SMILES. Like-named read-outs stand apart in the source and are kept apart here. Some results are limits rather than exact numbers.

Usually Ki stands for a dissociation constant, usually derived from enzyme kinetics or from competition with a known ligand. In general, EC50 refers to the concentration giving half of the maximal effect. Take `O[C@@H]1CCCC[C@H]1N1CCC(c2ccccc2)CC1` (racemic) [vesamicol, reference compound]: at rat VAChT, the affinity, expressed as Ki, was 0.021 µM. Also, the “Fraction Coiled” value in assay [1] (setting [3]) stood at 0.65; in assay [1] (setting [4]), 0.74; in assay [1] (setting [5]), 0.70; in assay [1] (setting [6]), 0.74; in assay [1] (setting [7]), 0.72; in assay [1] (unc-17 (md414), 15 µM), 0.00. Further, the “Fraction Coiled” value in assay [1] (unc-17 (md414), 30 µM) was 0.00; in assay [1] (unc-17 (md414), 60 µM), 0.00; in assay [1] (unc-17 (md414), 120 µM), 0.00; in assay [1] (unc-17 (md414), 240 µM), 0.037. The “Fraction Jerky-Unc” value in assay [1] (setting [3]) is on record as 0.35; in assay [1] (setting [4]), 0.24; in assay [1] (setting [5]), 0.24; in assay [1] (setting [6]), 0.14; in assay [1] (setting [7]), 0.15; in assay [1] (unc-17 (md414), 15 µM) it was 0.037. Further, the “Fraction Jerky-Unc” value in assay [1] (unc-17 (md414), 30 µM) came to 0.0741; in assay [1] (unc-17 (md414), 60 µM) it was 0.24; in assay [1] (unc-17 (md414), 120 µM), 0.43; in assay [1] (unc-17 (md414), 240 µM), 0.61. Moreover, the “Fraction No Phenotype” value is given as 0.00 in assay [1] (setting [3]); 0.00 in assay [1] (setting [4]); 0.00 in assay [1] (setting [5]); 0.00 in assay [1] (setting [6]); 0.00 in assay [1] (setting [7]); 0.96 in assay [1] (unc-17 (md414), 15 µM). In addition, the “Fraction No Phenotype” value was 0.93 in assay [1] (unc-17 (md414), 30 µM); 0.76 in assay [1] (unc-17 (md414), 60 µM); 0.57 in assay [1] (unc-17 (md414), 120 µM); 0.35 in assay [1] (unc-17 (md414), 240 µM). Also, the “Fraction Parayzed” value is 0.00 in assay [1] (setting [3]); 0.0185 in assay [1] (setting [4]); 0.0556 in assay [1] (setting [5]); 0.12 in assay [1] (setting [6]); 0.13 in assay [1] (setting [7]); 0.00 in assay [1] (unc-17 (md414), 15 µM). Further, the “Fraction Parayzed” value in assay [1] (unc-17 (md414), 30 µM) turned out to be 0.00; in assay [1] (unc-17 (md414), 60 µM), 0.00; in assay [1] (unc-17 (md414), 120 µM) it was 0.00; in assay [1] (unc-17 (md414), 240 µM), 0.00. For the same compound, the “mean % any phene (coiled, jerky-Unc or paralyzed)” value (“mean % any phene” below) in the assay with Pristionchus pacificus (setting [8]) is 0%; with Pristionchus pacificus (conc 15, observed at one hour), 0.8333%; in the assay on Pristionchus pacificus (conc 60, observed at one hour), 9.167%. For the same compound, the EC50 in the assay with Pristionchus pacificus was over 60 µM.

For the compound `CCC1CCC(N2CCN(c3ccc([N+](=O)[O-])cc3)CC2)CC1` (stereo not drawn) [Nemacol-2], the “mean % any phene” value turned out to be 4.167% in the assay on Pristionchus pacificus (setting [8]); 89.1667% in the assay on Pristionchus pacificus (conc 15, observed at one hour); 100% in the assay on Pristionchus pacificus (conc 60, observed at one hour). Also, the EC50 in the assay on Pristionchus pacificus was found to be 8.6 ± 1.3 µM.

In the case of `O=[N+]([O-])c1ccc(N2CCN(CC3CC4C=CC3C4)CC2)cc1` (stereo not drawn) [Nemacol-3], the “% effect (motility), DIROIM MF” value in assay [2] (0.08 µM) was found to be 0%; in assay [2] (0.4 µM) it was 0%; in assay [2] (2 µM), 0%; in assay [2] (10 µM) it was 80%; in assay [2] (50 µM), 100%. For the same compound, the EC50 in assay [2] worked out at 9.1 µM; in the assay on Pristionchus pacificus it was 24.5 ± 2.2 µM. For the same compound, the “mean % any phene” value turned out to be 0% with Pristionchus pacificus (setting [8]); 16.6667% in the assay with Pristionchus pacificus (conc 15, observed at one hour); 95% with Pristionchus pacificus (conc 60, observed at one hour).

For the compound `O=[N+]([O-])c1ccc(N2CCN(CC3CC=CCC3)CC2)cc1` (stereo not drawn) [Nemacol-4], the “% effect (motility), DIROIM MF” value in assay [2] (0.08 µM) is listed as 0%; in assay [2] (0.4 µM), 0%; in assay [2] (2 µM) it was 0%; in assay [2] (10 µM) it was 100%; in assay [2] (50 µM), 100%. Moreover, the figures for the half-maximal effective concentration (EC50) (in assay [2]; in the assay with Pristionchus pacificus) were 5.2 µM and 19.2 µM, respectively. Further, the “mean % any phene” value in the assay with Pristionchus pacificus (setting [8]) came to 0%; in the assay on Pristionchus pacificus (conc 15, observed at one hour), 15.8333%; in the assay on Pristionchus pacificus (conc 60, observed at one hour), 100%.
